Patent US20220249364A1, “Designed Inhibitors of Tight Junction Formation” (University of Rochester, priority 2019, published 2022)
No end group written: not given here.

Columns and labels:
[1] = test system: 16HBE cells; assay: TER measurement of tight junction disruption in 16HBE cells; type: cell-based, human; settings: 12 and 96 μM, over 24 hours
Description: PHFK were isolated from discarded foreskin tissue. Isolation and propagation procedures for both PHFK and 16HBE cells were done as previously described (Poumay, Roland, Leclercq-Smekens, & Leloup, 1994; Saatian et al., 2013).
10 mgs of synthesized TJDP (RS SYNTHESIS) was dissolved in 100 μl of DMSO (SIGMA). Dissolved peptide was then diluted in pre-warmed (55 ° C.) DMSO/PLURONIC F127® (SPECTRUM) solution formulated in PBS (0.6% / 0.12%, respectively). This solution was heated at 55° C. for 30 minutes then homogenized into detergent using a water bath sonicator (BRANSON 2200) for 10 minutes and vortexed for 1 minute. Peptide was stored at 4° C. until use.
TER and paracellular flux were done as previously published (De Benedetto, Rafaels, et al., 2011). […] 2 μM of fluorescently-labeled antibody (palivizumab) was added to cells after 24 hours of exposure to TJDP and paracellular flux was measured 30 minutes and 18 hours later.
Initial experiments employed the human bronchial epithelial cell line, 16HBE since this cell line is known for its robust TJ formation (Saatian et al., 2013). […] The honeycomb fluorescence pattern of these proteins on the cell surface is a hallmark of a barrier competent TJ (Furuse, Fujita, Hiiragi, Fujimoto, & Tsukita, 1998; Furuse et al., 1993). […] The antibody diffusion was measured at 30 min to reduce the likelihood that active transcellular transport was measured.

[2] = test system: 16HBE cells; assay: WST-1 cell viability assay in 16HBE cells; type: cell-based, human; settings: 50 μM, highest concentration tested
Description: (§1) For cytotoxicity measurements, cells were plated at a density of 75,000 cells/well in a 96-well plate and grown to confluence (2 days). Cells were then exposed to vehicle or TJDP and viability was measured at 24, 48 and 96 hours. WST-1 reagent (ROCHE) was diluted 20-fold into each well, and cells were incubated at 37° C. Duplicate readings were taken at 0.5 and 1 hour after addition using a THERMO MULTISKAN EX plate reader (A450—background A620). Media only wells were subtracted and values were normalized to media treated controls.

[3] = test system: primary human foreskin keratinocytes (PHFK); assay: WST-1 cell viability assay in PHFK; type: cell-based
Description: as §1

Substance	effect on TER values (control peptide) [1]	viability (WST-1) [2]	toxicity (WST-1) ([3]; 30 μM, p<0.05)	cell death (WST-1) ([3]; lower concentrations with robust inhibition of TJ formation)
(FKFE)2	did not affect TER values			
SSVSQSTGQIQSKVFDSLLNLSSTLQATR [Peptide 1]		no loss of viability		
SILTGVSTLDQSLKQLSNFSQAVSTQSSR [Peptide 2]		no loss of viability	Modest toxicity	no appreciable cell death
